In PMC6979384, “Characterization of the plant homeodomain (PHD) reader family for their histone tail interactions” (Epigenetics & Chromatin, 2020):

Tests used:
Assay in all cases: Histone peptide microarray
Format in all cases: binding, human
PHF23 = details: GST-tagged PHF23; histone peptide array; arrays performed twice, n of 4
In short: (§1)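 GST-PHD reader, 0.5 μM, probed on 293-peptide histone array (single/combinatorial PTMs); optimized array protocol; signal = mean ± SD, n = 4.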

ING5 = details: GST-tagged ING5; histone peptide array; arrays performed twice, n of 4
In short: as §1

ING3 = details: GST-tagged ING3; histone peptide array; arrays performed twice, n of 4
In short: as §1

CHD5 (PCC) = details: GST-tagged CHD5 (PCC = PHD + Dual Chromodomain); histone peptide array; arrays performed twice, n of 4
In short: as §1

PHF21A = details: GST-tagged PHF21A; histone peptide array; arrays performed twice, n of 4
In short: as §1

PHF13 = details: GST-tagged PHF13; histone peptide array; arrays performed twice, n of 4
In short: as §1

DIDO1 = details: GST-tagged DIDO1; histone peptide array; arrays performed twice, n of 4
In short: as §1

BPTF (PB) = details: GST-tagged BPTF (PB = PHD + Bromodomain); histone peptide array; arrays performed twice, n of 4
In short: as §1

MLL5 = details: GST-tagged MLL5; histone peptide array; arrays performed twice, n of 4
In short: as §1

PHF2 = details: GST-tagged PHF2; histone peptide array; arrays performed twice, n of 4
In short: as §1

TRIM66 (PB) = details: GST-tagged TRIM66 (PB = PHD + Bromodomain); histone peptide array; arrays performed twice, n of 4
In short: as §1

BAZ2B = details: GST-tagged BAZ2B; histone peptide array; arrays performed twice, n of 4
In short: as §1

ING4 = details: GST-tagged ING4; histone peptide array; arrays performed twice, n of 4
In short: as §1

KDM5A (1) = details: GST-tagged KDM5A (1); histone peptide array; arrays performed twice, n of 4
In short: as §1

AIRE (PP) = details: GST-tagged AIRE (PP); histone peptide array; arrays performed twice, n of 4
In short: as §1

ING2 = details: GST-tagged ING2; histone peptide array; arrays performed twice, n of 4
In short: as §1

CHD5 (PPCC) = details: GST-tagged CHD5 (PPCC = Dual PHD + Dual Chromodomain); histone peptide array; arrays performed twice, n of 4
In short: as §1

RAG2 = details: GST-tagged RAG2; histone peptide array; arrays performed twice, n of 4
In short: as §1

PHF8 = details: GST-tagged PHF8; histone peptide array; arrays performed twice, n of 4
In short: as §1

KDM5B (1) = details: GST-tagged KDM5B (1); histone peptide array; arrays performed twice, n of 4
In short: as §1

ING1 = details: GST-tagged ING1; histone peptide array; arrays performed twice, n of 4
In short: as §1

KDM7A = details: GST-tagged KDM7A; histone peptide array; arrays performed twice, n of 4
In short: as §1

MORC3 (CW) = details: GST-tagged MORC3 (CW = CW-type Zn-finger); histone peptide array; arrays performed twice, n of 4
In short: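 A peptide microarray holding 293 synthetic histone peptides with individual or combinatorial modifications was probed with each GST-PHD protein at 0.5 μM. Values represent mean intensity (±SD) from four replicates.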

KDM4C (TTP) = details: GST-tagged KDM4C (TTP = Tandem Tudor domain + PHD); histone peptide array; arrays performed twice, n of 4
In short: as §1

TAF3 = details: GST-tagged TAF3; histone peptide array; arrays performed twice, n of 4
In short: as §1

KDM5A (3) = details: GST-tagged KDM5A (3); histone peptide array; arrays performed twice, n of 4
In short: as §1

KDM5B (3) = details: GST-tagged KDM5B (3); histone peptide array; arrays performed twice, n of 4
In short: as §1

DPF2 (PPC2W2) = details: GST-tagged DPF2 (PPC2W2 = Dual PHD + C2W2-type Zn-finger); histone peptide array; arrays performed twice, n of 4
In short: as §1

CHD4 (PPCC) = details: GST-tagged CHD4 (PPCC = Dual PHD + Dual Chromodomain); histone peptide array; arrays performed twice, n of 4
In short: as §1

SP140L = details: GST-tagged SP140L; histone peptide array; arrays performed twice, n of 4
In short: as §1

PHRF1 (RP) = details: GST-tagged PHRF1 (RP); histone peptide array; arrays performed twice, n of 4
In short: as §1

Substance	Array Heatmap signal, PHF23 (PHF23)	Array Heatmap signal, ING5 (ING5)	Array Heatmap signal, ING3 (ING3)	Array Heatmap signal, CHD5 (PCC) (CHD5 (PCC))	Array Heatmap signal, PHF21A (PHF21A)	Array Heatmap signal, PHF13 (PHF13)	Array Heatmap signal, DIDO1 (DIDO1)	Array Heatmap signal, BPTF (PB) (BPTF (PB))	Array Heatmap signal, MLL5 (MLL5)	Array Heatmap signal, PHF2 (PHF2)	Array Heatmap signal, TRIM66 (PB) (TRIM66 (PB))	Array Heatmap signal, BAZ2B (BAZ2B)	Array Heatmap signal, ING4 (ING4)	Array Heatmap signal, KDM5A (1) (KDM5A (1))	Array Heatmap signal, AIRE (PP) (AIRE (PP))	Array Heatmap signal, ING2 (ING2)	Array Heatmap signal, CHD5 (PPCC) (CHD5 (PPCC))	Array Heatmap signal, RAG2 (RAG2)	Array Heatmap signal, PHF8 (PHF8)	Array Heatmap signal, KDM5B (1) (KDM5B (1))	also measured
H4R3me2a: H4 1-23 [Peptide H4R3me2a]	0.5402	0.4061	0.4883	0.8242	0.4696	0.6445	0.7103	0.3886	0.6462	0.4976	0.665	0.5399	0.4842	0.4898	0.5327	0.6586	0.5601	0.3803	0.391	0.6754	Array Heatmap signal, ING1 (ING1): 0.5321; Array Heatmap signal, KDM7A (KDM7A): 0.5968; Array Heatmap signal, MORC3 (CW) (MORC3 (CW)): 0.3932; Array Heatmap signal, KDM4C (TTP) (KDM4C (TTP)): 0.5587; Array Heatmap signal, TAF3 (TAF3): 0.3922; Array Heatmap signal, KDM5A (3) (KDM5A (3)): 0.5304; Array Heatmap signal, KDM5B (3) (KDM5B (3)): 0.6206; Array Heatmap signal, DPF2 (PPC2W2) (DPF2 (PPC2W2)): 0.6681; Array Heatmap signal, CHD4 (PPCC) (CHD4 (PPCC)): 0.544; Array Heatmap signal, SP140L (SP140L): 0.3676; Array Heatmap signal, PHRF1 (RP) (PHRF1 (RP)): 0.4379
H4R3me2s + K5ac + K8ac + K12ac + K16ac + K20ac: H4 1-23	0.5758	0.3711	0.4923	0.7755	0.4472	0.6071	0.8519	0.483	0.5888	0.6188	0.6231	0.4891	0.4768	0.4598	0.4445	0.6618	0.5595	0.3093	0.384	0.6719	Array Heatmap signal, ING1 (ING1): 0.5887; Array Heatmap signal, KDM7A (KDM7A): 0.3478; Array Heatmap signal, MORC3 (CW) (MORC3 (CW)): 0.4281; Array Heatmap signal, KDM4C (TTP) (KDM4C (TTP)): 0.4958; Array Heatmap signal, TAF3 (TAF3): 0.282; Array Heatmap signal, KDM5A (3) (KDM5A (3)): 0.5291; Array Heatmap signal, KDM5B (3) (KDM5B (3)): 0.4887; Array Heatmap signal, DPF2 (PPC2W2) (DPF2 (PPC2W2)): 0.6954; Array Heatmap signal, CHD4 (PPCC) (CHD4 (PPCC)): 0.5891; Array Heatmap signal, SP140L (SP140L): 0.3449; Array Heatmap signal, PHRF1 (RP) (PHRF1 (RP)): 0.4884
